Drawing on US10570129B2 (Zoetis Services LLC, priority 2015, dated 2020), this text covers inhibition in vivo and minimal effective concentration for 15 molecules.

In assay [1] the test system is Trichostrongylus colubriformis. As to the kind of experiment: Jird efficacy model. The assay is classed as in vivo. The conditions noted are these: Trichostrongylus colubriformis, sc, 96 h, read-out: Jird % (percentage efficacy).
The test system of assay [2] is D. immitis microfilariae. Briefly: Dirofilaria immitis, microfilariae (DiMF) in vitro motility assay. Type of assay: cell-based. The following applies: Dirofilaria immitis, 72 h, read-out: DiMF minimally effective dose (MEC).
The test system of assay [3] is Haemonchus contortus L3. As to the kind of experiment: microbe, parasite or virus in culture. The conditions noted are these: Haemonchus contortus, 96 h, read-out: HcL3 Minimal Effective Concentration (MEC). Type of assay: cell-based.

As to `O=C(NCc1ccnc(F)c1)n1c2c(c3ccc(C(F)(F)F)cc31)CN(C/C=C/c1ccc(Cl)c(F)c1)CC2` [Example 163, (E)-2-(3-(4-chloro-3-fluorophenyl)allyl)-N-((2-fluoropyridin-4-yl)methyl)-7-(trifluoromethyl)-1,2,3,4-tetrahydro-5H-pyrido[4,3-b]indole-5-carboxamide], the inhibition in vivo at 10 mg/kg in assay [1] came to 100%. Also, the minimal effective concentration in assay [2] was determined as 5.7 µM; in assay [3] it was 1.8 µM.

Consider `O=C(NCc1ccnc(Cl)c1)n1c2c(c3ccc(C(F)(F)F)cc31)CN(C/C=C/c1ccc(Cl)c(F)c1)CC2` [Example 152, (E)-2-(3-(4-chloro-3-fluorophenyl)allyl)-N-((2-chloropyridin-4-yl)methyl)-7-(trifluoromethyl)-1,2,3,4-tetrahydro-5H-pyrido[4,3-b]indole-5-carboxamide], for which the inhibition in vivo at 10 mg/kg in assay [1] stood at 99%. In addition, the minimal effective concentration in assay [2] was 3.3 µM; in assay [3], 1 µM.

As to `O=C(NCc1ccnc(Cl)c1)n1c2c(c3cc(Cl)ccc31)CN(C/C=C/c1ccc(F)c(F)c1)CC2` [Example 240, (E)-8-chloro-N-((2-chloropyridin-4-yl)methyl)-2-(3-(3,4-difluorophenyl)allyl)-1,2,3,4-tetrahydro-5H-pyrido[4,3-b]indole-5-carboxamide], the inhibition in vivo at 10 mg/kg in assay [1] came to 98%. Besides, the minimal effective concentration in assay [2] turned out to be 3.3 µM; in assay [3] it was 0.2 µM.

Consider `O=C(NCc1ccnc(F)c1)n1c2c(c3ccc(Cl)cc31)CN(C/C=C/c1ccc(Cl)cc1)CC2` [Example 229, (E)-7-chloro-2-(3-(4-chlorophenyl)allyl)-N-((2-fluoropyridin-4-yl)methyl)-1,2,3,4-tetrahydro-5H-pyrido[4,3-b]indole-5-carboxamide], for which the inhibition in vivo at 10 mg/kg in assay [1] turned out to be 100%. Also, the minimal effective concentration in assay [2] turned out to be 10 µM; in assay [3], 3.3 µM.

`N#Cc1ccc2c(c1)c1c(n2C(=O)NCc2ccnc(C(F)(F)F)c2)CCN(C/C=C/c2ccc(Cl)cc2F)C1` [Example 128, (E)-2-(3-(4-chloro-2-fluorophenyl)allyl)-8-cyano-N-((2-(trifluoromethyl)pyridin-4-yl)methyl)-1,2,3,4-tetrahydro-5H-pyrido[4,3-b]indole-5-carboxamide]: the inhibition in vivo at 10 mg/kg in assay [1] worked out at 100%. The minimal effective concentration worked out at 0.7 µM in assay [2] and 0.1 µM in assay [3].

On to `N#Cc1ccc2c(c1)c1c(n2C(=O)NCc2ccnc(F)c2)CCN(C/C=C/c2ccc(F)c(Br)c2)C1` [Example 109, (E)-2-(3-(3-bromo-4-fluorophenyl)allyl)-8-cyano-N-((2-fluoropyridin-4-yl)methyl)-1,2,3,4-tetrahydro-5H-pyrido[4,3-b]indole-5-carboxamide], for which the inhibition in vivo at 10 mg/kg in assay [1] is 99%. The minimal effective concentration in assay [2] was determined as 18.2 µM; in assay [3], 1.22 µM.

Regarding `N#Cc1ccc(/C=C/CN2CCc3c(c4cc(F)c(OC(F)(F)F)cc4n3C(=O)NCc3ccnc(Cl)c3)C2)cc1` [Example 470, (E)-N-((2-chloropyridin-4-yl)methyl)-2-(3-(4-cyanophenyl)allyl)-8-fluoro-7-(trifluoromethoxy)-1,2,3,4-tetrahydro-5H-pyrido[4,3-b]indole-5-carboxamide], in assay [1], the inhibition in vivo at 10 mg/kg turned out to be 100%. The minimal effective concentration was determined as 13.5 µM in assay [2] and 1 µM in assay [3].

As for `N#Cc1ccc2c(c1)c1c(n2C(=O)NCc2ccnc(F)c2)CCN(C/C=C/c2cc(Br)ccc2F)C1` [Example 108, (E)-2-(3-(5-bromo-2-fluorophenyl)allyl)-8-cyano-N-((2-fluoropyridin-4-yl)methyl)-1,2,3,4-tetrahydro-5H-pyrido[4,3-b]indole-5-carboxamide], the inhibition in vivo at 10 mg/kg in assay [1] came to 100%. Also, the results for the minimal effective concentration in assay [2] and in assay [3] were 3.2 µM and 2.4 µM, respectively.

For `O=C(NCc1ccnc(Cl)c1)n1c2c(c3ccc(Cl)cc31)CN(C/C=C/c1ccc(F)c(F)c1)CC2` [Example 211, (E)-7-chloro-N-((2-chloropyridin-4-yl)methyl)-2-(3-(3,4-difluorophenyl)allyl)-1,2,3,4-tetrahydro-5H-pyrido[4,3-b]indole-5-carboxamide], the inhibition in vivo at 10 mg/kg in assay [1] was found to be 100%. Also, the minimal effective concentration in assay [2] worked out at 10 µM; in assay [3], 1 µM.

On to `N#Cc1ccc2c3c(n(C(=O)NCc4ccnc(Cl)c4)c2c1)CCN(C/C=C/c1ccc(Cl)c(F)c1)C3` [Example 2, (E)-2-(3-(4-chloro-3-fluorophenyl)allyl)-N-((2-chloropyridin-4-yl)methyl)-7-cyano-1,2,3,4-tetrahydro-5H-pyrido[4,3-b]indole-5-carboxamide], for which, in assay [1], the inhibition in vivo at 10 mg/kg was 100%. The minimal effective concentration amounted to 4.8 µM in assay [2] and 1.6 µM in assay [3].

`N#Cc1ccc2c3c(n(C(=O)NCc4ccnc(Br)c4)c2c1)CCN(C/C=C/c1ccc(Cl)c(F)c1)C3` [Example 41, (E)-N-((2-bromopyridin-4-yl)methyl)-2-(3-(4-chloro-3-fluorophenyl)allyl)-7-cyano-1,2,3,4-tetrahydro-5H-pyrido[4,3-b]indole-5-carboxamide]: the inhibition in vivo at 10 mg/kg in assay [1] is 100%. Further, the figures for the minimal effective concentration in assay [2] and in assay [3] were 5.7 µM and 0.3 µM, respectively.

Consider `N#Cc1ccc(/C=C/CN2CCc3c(c4ccc(C(F)(F)F)cc4n3C(=O)NCc3ccnc(Cl)c3)C2)cc1` [Example 155, (E)-N-((2-chloropyridin-4-yl)methyl)-2-(3-(4-cyanophenyl)allyl)-7-(trifluoromethyl)-1,2,3,4-tetrahydro-5H-pyrido[4,3-b]indole-5-carboxamide], for which the inhibition in vivo at 10 mg/kg in assay [1] is 100%. Further, the minimal effective concentration is 22.6 µM in assay [2] and 1 µM in assay [3].

With `N#Cc1ccc(/C=C/CN2CCc3c(c4cc(Br)ccc4n3C(=O)NCc3ccnc(Cl)c3)C2)cc1` [Example 184, (E)-8-bromo-N-((2-chloropyridin-4-yl)methyl)-2-(3-(4-cyanophenyl)allyl)-1,2,3,4-tetrahydro-5H-pyrido[4,3-b]indole-5-carboxamide], the inhibition in vivo at 10 mg/kg in assay [1] turned out to be 100%. Moreover, the results for the minimal effective concentration in assay [2] and in assay [3] were 57.4 µM and 1 µM, respectively.

Take `O=C(NCc1ccnc(F)c1)n1c2c(c3cc4c(cc31)COC4)CN(C/C=C/c1ccc(Cl)cc1)CC2` [Example 483, (E)-8-(3-(4-chlorophenyl)allyl)-N-((2-fluoropyridin-4-yl)methyl)-1,3,6,7,8,9-hexahydro-5H-furo[3,4-f]pyrido[4,3-b]indole-5-carboxamide]: in assay [1], the inhibition in vivo at 10 mg/kg was 100%. Besides, the minimal effective concentration in assay [2] amounted to 3.3 µM; in assay [3], 0.5 µM.

On to `O=C(NCc1ccnc(F)c1)n1c2c(c3ccc(C(F)(F)F)cc31)CN(C/C=C/c1ccc(Cl)cc1)CC2` [Example 165, (E)-2-(3-(4-chlorophenyl)allyl)-N-((2-fluoropyridin-4-yl)methyl)-7-(trifluoromethyl)-1,2,3,4-tetrahydro-5H-pyrido[4,3-b]indole-5-carboxamide], for which the inhibition in vivo at 10 mg/kg in assay [1] was 100%. Further, the minimal effective concentration in assay [2] and in assay [3] was 3.3 µM each time.
